Results from US9593127B2, “Heterocyclylalkyne derivatives and their use as modulators of mGluR5 receptors” (RECORDATI IRELAND LTD., priority 2014, dated 2017).
pIC50: −log10 of the molar value.

Experiments:
[1] = molecular target: T1, human mGlu5 receptor (CHO T-REx h-mGluR5 cells) (Homo sapiens (Human), UniProt P41594); experiment: Calcium fluorescence measurement, potentiation of mGlu5 activation at EC20 of glutamate; assay type: cell-based; conditions: for Fold Increase 1 microM Glutam. / Fold Increase Glutam.: agonist glutamate; for EC50: potentiation, agonist glutamate at EC20, read-out: EC50 nM Glutam.
Excerpt: (§1) Cell lines stably transfected were generated using inducible expression vectors encoding human mGlu5 receptor using the Tetracycline-Regulated Expression system (T-REx™ system, Invitrogen, Life Technologies). Human mGluR5 open reading frame (ORF), comprehensive of the stop codon, were cloned into the pcDNA4/TO/myc-His™ A vector, carrying the TetO2 sequences. The insertion site was HindIII-PstI for mGluR5 receptors. The obtained constructs were then transfected into the T-REx CHO™ cell line using the FuGENE protocol (Roche); the CHO T-REx™ cell line stably expresses the Tet repressor (from the pcDNA6/TR plasmid) under the selection of blasticidin, 10 μg/ml. Stable clones were obtained selecting with zeocine 1 mg/ml and maintaining in ULTRA CHO medium (LONZA) supplemented with dialyzed FBS, zeocin, blasticidine, at 37° C., in an atmosphere of 5% CO2. The expression of h-mGluR5 receptors was de-repressed with 1 μg/ml tetracycline for 18 h before binding experimentation, while the expression of h-mGluR5 receptors was de-repressed respectively with 3 ng/ml and 10 ng/ml tetracycline for 18 h before calcium fluorescence experimentation.
(§2) Cells were seeded into black-walled, clear-bottom, 96-well plates at a density of 80000 cell/well, in RPMI (without Phenol Red, without L-glutamine; Gibco LifeTechnologies, CA) supplemented with 10% dialyzed FBS. Following 18-h incubation with tetracycline, the cells were loaded with […] Ca^2+—sensitive fluorescent dye Fluo-4/AM (Molecular Probes) in Hanks' balanced saline solution (HBSS, Gibco LifeTechnologies, CA) with 20 mM Hepes (Sigma) and 2.5 mM probenecid (Sigma), for 1 h at 37° C. The cells were washed three times with HBSS to remove extracellular dye. Fluorescence signals were measured by using the fluorescence microplate reader Flexstation III (Molecular Devices) at sampling intervals of 1.5 s for 60 s.
(§3) The antagonist potency was determined using the EC80 of the quisqualate used as agonist and the potentiation of mGlu5 activation was determined using the EC20 of the agonist (quisqualate or glutamate). The compounds were applied 10 minutes before the application of the agonist. For binding and calcium assay studies, the compounds were dissolved in DMSO or demineralized water according to their solubility. All the reported doses were those of the corresponding salts or bases.

[2] = molecular target: T1, human mGlu5 receptor (CHO T-REx h-mGluR5 cells); experiment: Radioligand binding assay at cloned mGluR5 ([3H]MPEP displacement); conditions: 4 nM [3H]MPEP, read-out: h.c. mglu R5 IC50
Excerpt: as §1
Affinity at transmembrane glutamate metabotropic mGluR5 receptor subtypes was evaluated according to the methods of Anderson (Anderson et al., J Pharmacol. Exp. Ther., (2002), Vol. 303(3), pp. 1044-51), with some modifications. Cloned mGluR5 was obtained by re-suspending CHO T-REx h-mGluR5 cells (50 μg/well) in 20 mM HEPES, 2 mM MgCl2, 2 mM CaCl2, pH 7.4, that then were incubated in a final volume of 1 ml for 60 min at 25° C. with 4 nM [^3H]MPEP in the absence or presence of competing drugs. Non-specific binding was determined in the presence of […] MPEP. The incubation was stopped by addition of cold Tris buffer pH 7.4 and rapid filtration through 0.2% polyethyleneimine pretreated Filtermat 1204-401 (Perkin Elmer) filters. The filters were then washed with cold buffer and the radioactivity retained on the filters was counted by liquid scintillation spectrometry (Betaplate 1204 BS-Wallac).
as §3
The inhibition curves of the tested compounds at native and cloned mGluR1 and mGluR5 subtypes were determined by nonlinear regression analysis using software Prism 4.0 (Graphpad, San Diego, Calif.). The IC50 values and pseudo-Hill slope coefficients were estimated by the program. The values for the inhibition constant, Ki, were calculated according to the equation Ki=IC50/(1+[L]/Kd), where [L] is the concentration of radioligand and Kd is the equilibrium dissociation constant of the radioligand-receptor complex (Cheng et al., Biochem. Pharmacol. (1973), Vol. 22, pp. 3099-3108).

[3] = molecular target: T1, human mGlu5 receptor (CHO T-REx h-mGluR5 cells); experiment: Calcium fluorescence measurement, potentiation of mGlu5 activation at EC20 of quisqualate; assay type: cell-based
Excerpt: as §1, §2, §3

T1 sequence (P41594 21-1212): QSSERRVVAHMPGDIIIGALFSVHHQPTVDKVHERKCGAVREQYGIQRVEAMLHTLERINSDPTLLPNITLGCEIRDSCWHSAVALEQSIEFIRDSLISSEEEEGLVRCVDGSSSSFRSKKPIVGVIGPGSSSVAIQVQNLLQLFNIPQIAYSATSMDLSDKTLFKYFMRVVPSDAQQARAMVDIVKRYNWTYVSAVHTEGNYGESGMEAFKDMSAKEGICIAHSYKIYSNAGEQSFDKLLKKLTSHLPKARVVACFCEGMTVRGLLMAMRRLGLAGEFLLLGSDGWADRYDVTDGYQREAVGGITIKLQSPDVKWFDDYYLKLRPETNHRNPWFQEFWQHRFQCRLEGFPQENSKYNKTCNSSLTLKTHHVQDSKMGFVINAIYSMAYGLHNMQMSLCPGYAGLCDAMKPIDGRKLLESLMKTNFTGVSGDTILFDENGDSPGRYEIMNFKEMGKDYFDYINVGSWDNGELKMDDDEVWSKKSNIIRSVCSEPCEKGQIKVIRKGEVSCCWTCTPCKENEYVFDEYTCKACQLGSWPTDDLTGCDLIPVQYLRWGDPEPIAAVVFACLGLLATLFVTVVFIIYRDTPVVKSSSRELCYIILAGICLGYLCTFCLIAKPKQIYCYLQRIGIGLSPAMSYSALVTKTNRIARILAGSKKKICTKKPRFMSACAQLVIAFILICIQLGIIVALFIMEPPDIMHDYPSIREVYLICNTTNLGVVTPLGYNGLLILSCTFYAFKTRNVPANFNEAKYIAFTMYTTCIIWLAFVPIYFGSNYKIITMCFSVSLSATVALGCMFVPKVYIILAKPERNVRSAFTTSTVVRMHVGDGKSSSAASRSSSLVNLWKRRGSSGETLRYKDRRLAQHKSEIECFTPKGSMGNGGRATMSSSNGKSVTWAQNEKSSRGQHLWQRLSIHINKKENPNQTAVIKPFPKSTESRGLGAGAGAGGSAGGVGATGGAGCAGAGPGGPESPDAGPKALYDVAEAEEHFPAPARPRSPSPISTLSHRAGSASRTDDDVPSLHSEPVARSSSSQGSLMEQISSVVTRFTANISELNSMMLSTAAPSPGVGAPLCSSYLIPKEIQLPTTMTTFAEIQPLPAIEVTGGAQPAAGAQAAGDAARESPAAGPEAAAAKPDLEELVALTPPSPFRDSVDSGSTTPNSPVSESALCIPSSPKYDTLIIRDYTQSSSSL

SMILES	Fold Increase 1 microM Glutam. [1] [fold]	Fold Increase Glutam. [1] [fold]	EC50 [1] [nM]	pIC50 [2]	also measured
CON(C)C(=O)N1CCC2C(C#Cc3cccc(C)n3)=NOC21 (stereo not shown) [Example 19, N-methoxy-N-methyl-3-[2-(6-methyl-2-pyridyl)ethynyl]-3a,4,5,6a-tetrahydropyrrolo[3,2-d]isoxazole-6-carboxamide]				6.62	
CCOC(=O)N1CCC2C(C#Cc3cccc(C)c3)=NOC21 (stereo not shown) [Example 16, ethyl 3-[2-(m-tolyl)ethynyl]-3a,4,5,6a-tetrahydropyrrolo[3,2-d]isoxazole-6-carboxylate]				6.82	
CCN(C(=O)N1CCC2C(C#Cc3cccc(Cl)c3)=NOC21)C(C)C (stereo not shown) [Example 4, 3-[2-(3-chlorophenyl)ethynyl]-N-ethyl-N-isopropyl-3a,4,5,6a-tetrahydropyrrolo[3,2-d]isoxazole-6-carboxamide]				8.16	
Cc1cccc(C#CC2=NOC3C2CCN3C(=O)N2CCCCC2)n1 (stereo not shown) [Example 17, [3-[2-(6-methyl-2-pyridyl)ethynyl]-3a,4,5,6a-tetrahydropyrrolo[3,2-d]isoxazol-6-yl]-(1-piperidyl)methanone]				< 6.00	Fold Inc. Quisq. ([3]; agonist quisqualate): 1.27 fold
Cc1cccc(C#CC2=NOC3C2CCN3C(=O)N2CCOCC2)n1 (stereo not shown) [Example 18, [3-[2-(6-methyl-2-pyridyl)ethynyl]-3a,4,5,6a-tetrahydropyrrolo[3,2-d]isoxazol-6-yl]-morpholino-methanone]				< 6.00	
O=C(N1CCOCC1)N1CCC2C(C#Cc3cccc(Cl)c3)=NOC21 (stereo not shown) [Example 6, [3-[2-(3-chlorophenyl)ethynyl]-3a,4,5,6a-tetrahydropyrrolo[3,2-d]isoxazol-6-yl]-morpholino-methanone]	3.24	5.1	95.2	7.61	Fold Shift 1 microM Quisq. ([3]; 1 microM, agonist quisqualate): 2.7 fold; Fold Inc. Quisq. ([3]; agonist quisqualate): 3.3 fold; EC50 ([3]; potentiation, agonist quisqualate at EC20, read-out: EC50 nM Quisq.): 132 nM
Cc1cccc(C#CC2=NOC3C2CCN3C(=O)N2CCCCC2)c1 (stereo not shown) [Example 12, [3-[2-(m-tolyl)ethynyl]-3a,4,5,6a-tetrahydropyrrolo[3,2-d]isoxazol-6-yl]-(1-piperidyl)methanone]				7.97	
CCOC(=O)N1CCC2C(C#Cc3cccc(C)n3)=NOC21 (stereo not shown) [Example 20, ethyl 3-[2-(6-methyl-2-pyridyl)ethynyl]-3a,4,5,6a-tetrahydropyrrolo[3,2-d]isoxazole-6-carboxylate]				< 6.00	Fold Inc. Quisq. ([3]; agonist quisqualate): 0 fold
Cc1cccc(C#CC2=NOC3C2CCN3C(=O)OC(C)(C)C)n1 (stereo not shown) [Example 5, tert-butyl 3-[2-(6-methyl-2-pyridyl)ethynyl]-3a,4,5,6a-tetrahydropyrrolo[3,2-d]isoxazole-6-carboxylate]				6.15	Fold Inc. Quisq. ([3]; agonist quisqualate): 0 fold

Continued, in another order:

Fold Increase 1 microM Glutam. [1] [fold]	Fold Increase Glutam. [1] [fold]	EC50 [1] [nM]	pIC50 [2]	SMILES	also measured
1.92	2.92	1100		CN1CCN(C(=O)N2CCC3C(C#Cc4cccc(Cl)c4)=NOC32)CC1 (stereo not shown) [Example 32, 3-(3-chlorophenylethynyl)-3a,4,5,6a-tetrahydropyrrolo[3,2-d]isoxazol-6-yl-(4-methylpiperazin-1-yl)methanone]	
3.11	4.7	777		O=C(OCC1CC1)N1CCC2C(C#Cc3cccc(Cl)c3)=NOC21 (stereo not shown) [Example 22, cyclopropylmethyl-3-(3-chlorophenylethynyl)-3a,4,5,6a-tetrahydropyrrolo[3,2-d]isoxazole-6-carboxylate]	
	0			Cc1ccc(C(=O)N2CCC3C(C#Cc4cccc(Cl)c4)=NOC32)o1 (stereo not shown) [Example 29, 3-(3-chlorophenylethynyl)-3a,4,5,6a-tetrahydropyrrolo[3,2-d]isoxazol-6-yl-(5-methylfuran-2-yl)methanone]	
	0			O=C(Nc1cccnc1)N1CCC2C(C#Cc3cccc(Cl)c3)=NOC21 (stereo not shown) [Example 36, 3-(3-chlorophenylethynyl)-N-(pyridin-3-yl)-3a,4,5,6a-tetrahydropyrrolo[3,2-d]isoxazole-6-carboxamide]	
	0			O=C(c1ccoc1)N1CCC2C(C#Cc3cccc(Cl)c3)=NOC21 (stereo not shown) [Example 28]	
4.08	5.11	96.9		O=C(NC1CCCC1)N1CCC2C(C#Cc3cccc(Cl)c3)=NOC21 (stereo not shown) [Example 27, 3-(3-chlorophenylethynyl)-N-cyclopentyl-3a,4,5,6a-tetrahydropyrrolo[3,2-d]isoxazole-6-carboxamide]	
	0			CC(C)NC(=O)N1CCC2C(C#Cc3cccc(Cl)c3)=NOC21 (stereo not shown) [Example 25, 3-(3-chlorophenylethynyl)-N-(propan-2-yl)-3a,4,5,6a-tetrahydropyrrolo[3,2-d]isoxazole-6-carboxamide]	
2.65	5.09	54.6		CC(C)(C)NC(=O)N1CCC2C(C#Cc3cccc(Cl)c3)=NOC21 (stereo not shown) [Example 26, N-t-butyl-3-(3-chlorophenylethynyl)-3a,4,5,6a-tetrahydropyrrolo[3,2-d]isoxazole-6-carboxamide]	
3.95	3.69	108		O=C(C1CCCC1)N1CCC2C(C#Cc3cccc(Cl)c3)=NOC21 (stereo not shown) [Example 30, 3-(3-chlorophenylethynyl)-3a,4,5,6a-tetrahydropyrrolo[3,2-d]isoxazol-6-yl-(cyclopentyl)methanone]	
	0			CC(C)OC(=O)N1CCC2C(C#Cc3cccc(Cl)c3)=NOC21 (stereo not shown) [Example 21, isopropyl-3-(3-chlorophenylethynyl)-3a,4,5,6a-tetrahydropyrrolo[3,2-d]isoxazole-6-carboxylate]	
		542		CC(C)CCOC(=O)N1CCC2C(C#Cc3cccc(Cl)c3)=NOC21 (stereo not shown) [Example 34, 3-methylbutyl-3-(3-chlorophenylethynyl)-3a,4,5,6a-tetrahydropyrrolo[3,2-d]isoxazole-6-carboxylate]	
8.48	5.8	33.9		CC(C)(C)COC(=O)N1CCC2C(C#Cc3cccc(Cl)c3)=NOC21 (stereo not shown) [Example 24, 2,2-dimethylpropyl-3-(3-chlorophenylethynyl)-3a,4,5,6a-tetrahydropvrrolo[3,2-d]isoxazole-6-carboxylate]	
2.14	5.29	301		O=C(C1CCOCC1)N1CCC2C(C#Cc3cccc(Cl)c3)=NOC21 (stereo not shown) [Example 31, 3-(3-chlorophenylethynyl)-3a,4,5,6a-tetrahydropyrro[3,5,6a-tetrahdrorrolo3,2-d]oxazol-6-yl-(oxan-4-yl)methanone]	
		144		O=C(OC1CCCC1)N1CCC2C(C#Cc3cccc(Cl)c3)=NOC21 (stereo not shown) [Example 23, cyclopentyl-3-(3-chlorophenylethynyl)-3a,4,5,6a-tetrahydropyrrolo[3,2-d]isoxazole-6-carboxylate]	
